Results taken from ChEMBL document CHEMBL1129577, “Identification of a novel oxazolidinone (U-100480) with potent antimycobacterial activity” (1996).
Values after ≈ are worked out from the molar mass of the structure shown.

Tests used:
Type in all cases: functional
[1] = tested on: Mycobacterium tuberculosis; assay: In vitro anti-mycobacterial activity against multiple sensitive strains of Mycobacterium tuberculosis at 0.125 ug/mL
[2] = tested on: Mycobacterium tuberculosis; assay: In vitro anti-mycobacterial activity against multiple sensitive strains of Mycobacterium tuberculosis at 2 ug/mL
[3] = tested on: Mycobacterium tuberculosis; assay: In vitro anti-mycobacterial activity against multiple sensitive strains of Mycobacterium tuberculosis at 0.50 ug/mL
[4] = tested on: Mycobacterium tuberculosis; assay: Compound was evaluated for in vitro anti-mycobacterial activity against Mycobacterium tuberculosis H37Rv
[5] = tested on: Mycobacterium avium; assay: Compound was evaluated for in vitro anti-mycobacterial activity against Mycobacterium avium complex by 50%
[6] = tested on: Mycobacterium simiae; assay: Compound was evaluated for in vitro anti-mycobacterial activity against Mycobacterium simiae
[7] = tested on: Mycobacterium avium; assay: Compound was evaluated for in vitro anti-mycobacterial activity against MAC 101
[8] = tested on: Mycobacterium xenopi; assay: Compound was evaluated for in vitro anti-mycobacterial activity against Mycobacterium xenopi
[9] = tested on: Mycobacterium avium; assay: Compound was evaluated for in vitro anti-mycobacterial activity against Mycobacterium avium complex (MAC) ATCC 49601
[10] = tested on: Mycolicibacterium fortuitum; assay: Compound was evaluated for in vitro anti-mycobacterial activity against Mycobacterium fortuitum
[11] = tested on: Mycobacterium tuberculosis; assay: In vitro anti-mycobacterial activity against multiple sensitive strains of Mycobacterium tuberculosis at 0.03 ug/mL
[12] = tested on: Mycobacterium avium; assay: Compound was evaluated for in vitro anti-mycobacterial activity against Mycobacterium avium complex by 90%
[13] = tested on: Mycobacterium malmoense; assay: Compound was evaluated for in vitro anti-mycobacterial activity against Mycobacterium malmoense
[14] = tested on: Mycobacterium tuberculosis; assay: Compound was evaluated for in vitro anti-mycobacterial activity against Mycobacterium tuberculosis

| Structure (SMILES) | No. of strains [1] | No. of strains [3] | MIC [6] | MIC [7] | MIC [8] | MIC [9] | MIC [10] | MIC [13] | MIC [14] | other results |
| --- | --- | --- | --- | --- | --- | --- | --- | --- | --- | --- |
| CC(=O)NC[C@H]1CN(c2ccc(N3CCS(=O)(=O)CC3)c(F)c2)C(=O)O1 | 1 | 4 |  |  |  |  |  |  |  | No. of strains [2]: 1 |
| CC(=O)NC[C@H]1CN(c2ccc(N3CCSCC3)c(F)c2)C(=O)O1 [SUTEZOLID] | 2 | 2 | 2 mg/L (≈ 5.66 µM) | 0.5 mg/L (≈ 1.41 µM) | 2 mg/L (≈ 5.66 µM) | 4 mg/L (≈ 11.3 µM) | 8 mg/L (≈ 22.6 µM) | 2 mg/L (≈ 5.66 µM) |  | MIC [4]: < 0.125 mg/L; MIC [5]: 2 mg/L (≈ 5.66 µM); No. of strains [11]: 1; MIC [12]: 4 mg/L (≈ 11.3 µM) |
| CC(=O)NC[C@H]1CN(c2ccc(N3CC[S+]([O-])CC3)c(F)c2)C(=O)O1 |  |  |  |  |  |  |  |  | < 0.125 mg/L |  |
| CC[C@H]1OC(=O)[C@H](C)[C@@H](O[C@H]2C[C@@](C)(OC)[C@@H](O)[C@H](C)O2)[C@H](C)[C@@H](O[C@@H]2O[C@H](C)C[C@H](N(C)C)[C@H]2O)[C@](C)(O)C[C@@H](C)CN(C)[C@H](C)[C@@H](O)[C@]1(C)O [AZITHROMYCIN] |  |  | 4 mg/L (≈ 5.34 µM) | 4 mg/L (≈ 5.34 µM) | 1 mg/L (≈ 1.34 µM) | 4 mg/L (≈ 5.34 µM) | > 64 mg/L | 16 mg/L (≈ 21.4 µM) |  |  |
| NNC(=O)c1ccncc1 [ISONIAZID] |  |  |  |  |  |  |  |  | 0.2 mg/L (≈ 1.46 µM) |  |
